Results reported in ChEMBL document CHEMBL1921691, “Synthesis and growth regulatory activity of a prototype member of a new family of aminothiol radioprotectors” (Bioorg Med Chem Lett, 2011).
Active and inactive are the calls of the source. No cut-off for these calls is given here.

What follows are molecules tested on Rattus norvegicus (assay: Protection against 17.33 Gy radiation induced-dermatitis in rat compound administered topically 4 times in 2 hrs prior irradiation measured after 13 days). Conditions: not given.
Format: functional, organism-based

Q: How did the Activity turn out when `CNCC(CS)CNC` was run?
A: Its Activity is “Active”.

Species on record: Homo sapiens
Assay: Antiproliferative activity against log phase culture of human fibroblasts assessed as growth inhibition after 4 days
Format: functional
Conditions: Fibroblast

Q: Which “growth inhibition (GI)” value does the source give for `CCNCCCCNCCCCNC/C=C(/CS)CNCCCCNCCCCNCC` here?
A: Its value is “Active”.

Q: With `CNCC(CS)CNC` as the molecule, how does the “growth inhibition (GI)” value read?
A: Its value is “Active”.

Q: With `CCNCCCCNCCCCNCCCCNCCCCNC/C=C(/CS)CNCCCCNCCCCNCCCCNCCCCNCC` as the molecule, how does the “growth inhibition (GI)” value read?
A: The value was “Active”.

Q: How did the “growth inhibition (GI)” value turn out when `CCNCCCCNCCCCNCCCCNC/C=C(/CS)CNCCCCNCCCCNCCCCNCC` was run?
A: Its value is “Active”.

Q: `CCNCCCCNC/C=C(/CS)CNCCCCNCC` was tested. Which “growth inhibition (GI)” value did it give?
A: The value was “Active”.
